The text below walks through data of patent publication US20170022171A1, “2,5-DISUBSTITUTED CYCLOPENTANECARBOXYLIC ACIDS AND THEIR USE” (Bayer Pharma Aktiengesellschaft, priority 2014, published 2017).

One may read the IC50 as the midpoint of a concentration-inhibition curve. Read a low IC50 as greater potency in that assay.

Common to all, as to type: biochemical
Test [1] deals with T1, human macrophage elastase (HME/hMMP-12) (Homo sapiens, UniProt P39900).
T1 construct: 0.5 nM HME; purchased R&D Systems 917-MP
T1 sequence (P39900 106-470): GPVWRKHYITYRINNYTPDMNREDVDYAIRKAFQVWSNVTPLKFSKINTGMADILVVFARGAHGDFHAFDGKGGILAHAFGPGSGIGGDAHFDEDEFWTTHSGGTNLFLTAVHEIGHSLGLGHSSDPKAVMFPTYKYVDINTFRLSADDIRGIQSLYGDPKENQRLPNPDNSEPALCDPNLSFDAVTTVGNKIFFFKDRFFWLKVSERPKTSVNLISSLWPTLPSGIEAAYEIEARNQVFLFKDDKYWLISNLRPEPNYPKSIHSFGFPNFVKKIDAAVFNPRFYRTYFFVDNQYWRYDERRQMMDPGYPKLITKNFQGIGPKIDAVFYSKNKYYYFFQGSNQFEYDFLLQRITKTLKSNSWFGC
Briefly: In vitro HME inhibition test (standard or high-sensitivity). Particulars: in some cases mean values. The method, boiled down: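 Fluorogenic assay: 0.5 nM autoactivated HME with 5 µM Mca-Pro-Leu-Gly-Leu-Glu-Glu-Ala-Dap(Dnp)-NH2 in HEPES pH 7.4 buffer (NaCl, CaCl2, ZnCl2, EDTA, Brij), 2 h at 37 °C; ex 323/em 393 nm. IC50 from fluorescence versus concentration. High-sensitivity format: ~0.05 nM enzyme, ~16 h incubation.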

Test [2] addresses T2, MMP-10 (Homo sapiens, UniProt P09238).
T2 construct: purchased R&D Systems 910-MP
Briefly: In vitro MMP-10 inhibition test. The method, boiled down:
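APMA-activated recombinant MMP-10 (final e.g. 2 nM) with quenched Mca-Arg-Pro-Lys-Pro-Val-Glu-Nval-Trp-Arg-Lys(Dnp)-NH2 substrate (final e.g. 10 μM) in 50 mM Tris/HCl pH 7.5, 10 mM CaCl2, 150 mM NaCl, 0.05% Brij-35. Fluorescence (ex 320/em 410 nm) followed e.g. 120 min at 32 °C. IC50 at 50% signal.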

Test [3] addresses T3, MMP-13 (Homo sapiens, UniProt P45452).
T3 construct: purchased R&D Systems 511-MP
Briefly: In vitro MMP-13 inhibition test. The method in brief:
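APMA-activated recombinant MMP-13 (e.g. 0.1 nM final) in 50 mM Tris/HCl pH 7.5, 10 mM CaCl2, 150 mM NaCl, 0.05% Brij-35 with Mca-PLGL-Dpa(Dnp)-AR-NH2 substrate (e.g. 10 μM final). Fluorescence (ex 320/em 410 nm) followed e.g. 120 min at 32 °C; IC50 at 50% signal.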

Test [4] has as its target T4, MMP-14 (Homo sapiens, UniProt P50281).
T4 construct: purchased R&D Systems 918-MP
Briefly: In vitro MMP-14 inhibition test. The method in brief: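 Furin-activated recombinant MMP-14 (e.g. 0.5 nM final) with compound in Tris pH 7.5, CaCl2, NaCl, Brij-35 buffer; Mca/Dnp quenched peptide substrate, e.g. 5 μM final. Fluorescence (ex 320/em 410 nm) followed e.g. 120 min at 32 °C; IC50 at half-maximal signal.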

In test [5] the target is T5, MMP-16 (Homo sapiens, UniProt P51512).
T5 construct: purchased R&D Systems 1785-MP
T5 sequence (P51512 120-564 limits assumed): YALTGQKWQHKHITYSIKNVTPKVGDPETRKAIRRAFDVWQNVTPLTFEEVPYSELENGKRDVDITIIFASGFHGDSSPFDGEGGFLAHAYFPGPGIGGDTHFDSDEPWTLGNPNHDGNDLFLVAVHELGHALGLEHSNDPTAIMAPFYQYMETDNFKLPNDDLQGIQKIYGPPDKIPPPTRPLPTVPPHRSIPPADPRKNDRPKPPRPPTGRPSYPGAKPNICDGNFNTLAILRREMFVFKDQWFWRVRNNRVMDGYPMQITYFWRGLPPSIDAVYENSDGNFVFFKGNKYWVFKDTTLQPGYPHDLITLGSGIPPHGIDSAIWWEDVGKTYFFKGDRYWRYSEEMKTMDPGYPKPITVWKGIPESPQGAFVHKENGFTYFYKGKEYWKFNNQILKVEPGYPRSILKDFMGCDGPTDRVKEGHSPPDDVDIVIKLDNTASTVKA
Briefly: In vitro MMP-16 inhibition test. The method, boiled down: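 Furin-activated recombinant MMP-16 (e.g. 1 nM) in 50 mM Tris/HCl pH 7.5, 10 mM CaCl2, 150 mM NaCl and 0.05% Brij-35 received compound in DMSO (e.g. 1 nM–30 μM), then 5 μM Mca-Lys-Pro-Leu-Gly-Leu-Dpa(Dnp)-Ala-Arg-NH2. Fluorescence (ex 320/em 410 nm) was followed, e.g. over 120 min at 32 °C. IC50 is the concentration halving the signal.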

T2 sequence (P09238 99-476): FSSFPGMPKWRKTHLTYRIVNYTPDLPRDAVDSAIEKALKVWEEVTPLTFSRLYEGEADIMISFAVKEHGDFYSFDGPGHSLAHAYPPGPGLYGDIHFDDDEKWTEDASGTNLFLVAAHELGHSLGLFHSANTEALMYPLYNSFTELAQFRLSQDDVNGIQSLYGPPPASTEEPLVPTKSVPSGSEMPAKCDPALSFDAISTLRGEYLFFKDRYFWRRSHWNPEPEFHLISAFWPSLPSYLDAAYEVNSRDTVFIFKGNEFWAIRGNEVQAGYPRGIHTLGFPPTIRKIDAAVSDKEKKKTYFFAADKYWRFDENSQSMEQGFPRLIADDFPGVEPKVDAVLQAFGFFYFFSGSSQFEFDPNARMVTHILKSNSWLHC

Take `O=C(O)[C@H]1[C@H](Cn2nnc3ccc(C(F)(F)F)cc3c2=O)CC[C@@H]1C(=O)c1ccc(OCCCC2CCCCC2)cc1` (racemic) [Example 56, (+/−)-(1RS,2RS,5SR)-2-{4-(3-Cyclohexylpropoxy)benzoyl}-5-{[4-oxo-6-(trifluoromethyl)-1,2,3-benzotriazin-3(4H)-yl]methyl}cyclopentanecarboxylic acid]: the half-inhibitory concentration (IC50) was 0.2 nM in test [1]; 250 nM in test [2]; 2400 nM in test [3]; above 40000 nM in test [4]; above 40000 nM in test [5].
As to `Cc1cccc(COc2ccc(C(=O)[C@H]3CC[C@@H](Cn4nnc5ccc(C)cc5c4=O)[C@@H]3C(=O)O)cc2)c1` (racemic) [Example 97, (+/−)-(1RS,2RS,5SR)-2-{4-[(3-Methylbenzyl)oxy]benzoyl}-5-[(6-methyl-4-oxo-1,2,3-benzotriazin-3(4H)-yl)methyl]cyclopentanecarboxylic acid], the IC50 worked out at 0.4 nM in test [1]; 160 nM in test [2]; 1500 nM in test [3]; 870 nM in test [4]; 4500 nM in test [5].
On the same counts, the results for `O=C(O)[C@H]1[C@H](Cn2nnc3ccc(C(F)(F)F)cc3c2=O)CC[C@@H]1C(=O)c1ccc(OCc2cccc(C(F)(F)F)c2)cc1` (racemic) [Example 18, (+/−)-(1RS,2SR,5RS)-2-{[4-Oxo-6-(trifluoromethyl)-1,2,3-benzotriazin-3(4H)-yl]methyl}-5-(4-{[3-(trifluoromethyl)benzyl]oxy}benzoyl)cyclopentanecarboxylic acid] are 0.11 nM, 200 nM, 1400 nM, 1000 nM and 4000 nM.
